The numbers were not newly measured in PubChem BioAssay AID1259409 (Chemical Carcinogenesis Research Information System (CCRIS), 2018), which cites them from elsewhere.

In this data set the test system is rodent chemically induced tumor inhibition, incidence and multiplicity. The data set is described as follows: CCRIS tumor inhibitor studies. Particulars: Route [Inhibitor]: ORAL, Species: RAT, Promoter: NONE USED.

Each structure is given as a SMILES string.

Consider `Clc1ccc(COC(Cn2ccnc2)c2ccc(Cl)cc2Cl)c(Cl)c1` (stereo not given), for which the “tumour outcome (control, treated, inhibition, significance)” value is, setting by setting: (Carcinogen: 7,12-DIMETHYLBENZ[A]ANTHRACENE, 57-97-6, Dose [Inhibitor]: 0, 1000 PPM IN DIET FOR DURATION OF STUDY BEGINNING 1 WK PRIOR TO CARCINOGEN DOSE (STUDY DURATION: 107 D), Strain/Sex: SPRAGUE-DAWLEY/FEMALE, Target Tissue: Type of Lesion: MAMMARY GLAND: ADENOCARCINOMA, Dose [Carcinogen]: 12 MG ONCE) 96%, 84%, 13%, not significant; (Carcinogen: 7,12-DIMETHYLBENZ[A]ANTHRACENE, 57-97-6, Dose [Inhibitor]: 0, 2000 PPM IN DIET FOR DURATION OF STUDY BEGINNING 1 WK PRIOR TO CARCINOGEN DOSE (STUDY DURATION: 107 D), Strain/Sex: SPRAGUE-DAWLEY/FEMALE, Target Tissue: Type of Lesion: MAMMARY GLAND: ADENOCARCINOMA, Dose [Carcinogen]: 12 MG ONCE) 96%, 68%, 29%, not calculated.

As for `C[C@]12CCC(=O)C=C1CC[C@@H]1[C@@H]2CC[C@@]2(C)[C@H]1CC[C@]2(C)O`, the “tumour outcome (control, treated, inhibition, significance)” value is recorded as 9/13 (69%), 2/15 (13%), 81%, p<0.05 (Carcinogen: N-BIS(2-HYDROXYPROPYL)NITROSAMINE, 53609-64-6, Dose [Inhibitor]: 0.03% IN DIET FOR 28 WK BEGINNING POST CARCINOGEN DOSE (STUDY DURATION: 30 WK), Strain/Sex: WISTAR/MALE, Target Tissue: Type of Lesion: THYROID: ADENOMA, Dose [Carcinogen]: 210 MG/100 G 1/WK FOR 2 WK); 2/13 (15%), 2/15 (13%), 13%, not calculated (Carcinogen: N-BIS(2-HYDROXYPROPYL)NITROSAMINE, 53609-64-6, Dose [Inhibitor]: 0.03% IN DIET FOR 28 WK BEGINNING POST CARCINOGEN DOSE (STUDY DURATION: 30 WK), Strain/Sex: WISTAR/MALE, Target Tissue: Type of Lesion: THYROID: CARCINOMA, Dose [Carcinogen]: 210 MG/100 G 1/WK FOR 2 WK); 9/13 (69%), 0/15 (0%), 100%, p<0.05 (Carcinogen: N-BIS(2-HYDROXYPROPYL)NITROSAMINE, 53609-64-6, Dose [Inhibitor]: 0.15% IN DIET FOR 28 WK BEGINNING POST CARCINOGEN DOSE (STUDY DURATION: 30 WK), Strain/Sex: WISTAR/MALE, Target Tissue: Type of Lesion: THYROID: ADENOMA, Dose [Carcinogen]: 210 MG/100 G 1/WK FOR 2 WK).
